Experimental data as given in patent US20100280023A1, “THIAZOLE DERIVATIVES” (KYOWA HAKKO KOGYO CO., LTD., priority 2005, published 2010).

Columns and labels:
[1] = target: T1, Rat adenosine A2A receptor (Rattus norvegicus, UniProt P30543); test: Adenosine A2A receptor binding test (3H-CGS21680 binding, rat corpus striatum membranes); conditions: test compound 10^−7 mol/L, 25° C., 120 minutes, read-out: Rat adenosine A2A receptor binding inhibition rate (%) (10^−7 mol/L)
T1 construct: tissue Nippon SLC (animals); host or cells: rat (SD) corpus striatum membrane preparation
T1 sequence (P30543 whole entry): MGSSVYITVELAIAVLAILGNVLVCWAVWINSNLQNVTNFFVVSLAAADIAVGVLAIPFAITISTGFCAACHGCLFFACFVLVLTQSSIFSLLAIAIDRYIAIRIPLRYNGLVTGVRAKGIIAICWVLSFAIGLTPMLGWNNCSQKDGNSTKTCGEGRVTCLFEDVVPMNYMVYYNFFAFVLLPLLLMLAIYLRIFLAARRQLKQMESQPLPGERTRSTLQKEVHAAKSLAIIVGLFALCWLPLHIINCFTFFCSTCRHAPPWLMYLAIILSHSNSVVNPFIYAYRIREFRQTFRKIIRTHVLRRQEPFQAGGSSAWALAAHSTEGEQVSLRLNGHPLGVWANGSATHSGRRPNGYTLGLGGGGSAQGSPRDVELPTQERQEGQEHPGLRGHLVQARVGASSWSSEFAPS
Protocol: This test was carried out in a similar manner to a Bruns et al's method (Molecular Pharmacology, Vol. 29, p. 331, 1986).
Corpus striatum of a rat (SD rat, by Nippon SLC) was suspended in 50 mL of an ice-cooled 50 mmol/L tris(hydroxymethyl)aminomethane hydrochloride (Tris-HCl) buffer (pH 7.7) using a polytron homogenizer (by Kinematica). The resulting suspension was centrifuged (48,000×g, 20 minutes), and the resulting precipitate was resuspended by adding the same amount of a 50 mmol/L Tris-HCl buffer, followed by centrifugation under the same condition. The resulting final precipitate was suspended by adding a 50 mmol/L Tris-HCl buffer [containing 10 mmol/L magnesium chloride, adenosine deaminase 0.02 units/mg tissue (by Sigma)] thereto so that the tissue concentration was 5 mg (wet weight)/mL.
To 100 μl, of the above purified cell suspension, 80 μL (final concentration: […]) of tritium-labeled CGS-21680 {^3H-2-[p-(2-carboxyethyl)phenethylamino]-5′-(N-ethylcarboxamido)-adenosine: 40 curies/mmol: by New England Nuclear [The Journal of Pharmacology and Experimental Therapeutics, Vol. 251, p. 888, 1989]) and 20 μL of a test compound solution (10^−7 mol/L; a solution of a test compound in DMSO was diluted with a Tris-HCl buffer) were added. The resulting mixture was allowed to stand at 25° C. for 120 minutes, followed by rapid suction filtration through a glass fiber paper filter (GF/C; by Whatman). The filter was immediately washed three times with 200 μL of an ice-cooled 50 mmol/L Tris-HCl buffer. The glass fiber paper filter was transferred into a vial, Microscinti (by Perkin Elmer) was added thereto, and the radioactivity level was measured with Topcount (by Perkin Elmer).
The inhibition rate of the test compound to the adenosine A2A receptor binding (3H-CGS21680 binding) was calculated according to the following equation.
Inhibition rate (%)={1−[(Amount of binding in the presence of compound)−(Amount of non-specific binding)]/[(Amount of total binding)−(Amount of non-specific binding)]}×100
Amount of total binding means the ^3H-CGS21680 binding radioactivity content in the absence of the test compound. Amount of non-specific binding means the ^3H-CGS21680 binding radioactivity content in the presence of 100 μmol/L cyclopentyladenosine (CPA; by Sigma). Amount of binding in the presence of compound means the ^3H-CGS21680 binding radioactivity content in the presence of 10^−7 mol/L, of the test compound.

[2] = tested on: CGS21680-induced catalepsy; test: Effect on CGS21680-induced catalepsy; type: in vivo, male ddY mice; conditions: mice; 10 mg/kg orally 30 minutes before i.c.v. CGS21680 10 μg/20 μL; scored 1 hour after administration; 80% or more judged active
Protocol: Parkinson's disease is motor dysfunction based on the degeneration and cell death of the nigrostriatal dopaminergic neuron. […] Therefore, it is considered that the adenosine A2A receptor functions to promote the output of GABAergic neurons from the corpus striatum into the external segment of globus pallidus, and as a result, catalepsy is induced by the administration of CGS21680.
The experiment was carried out using 10 male ddY mice of 5 weeks of age (body weight, 22 to 25 g, by Nippon SLC) per group. CGS21680 (by Kyowa Hakko Kogyo) was dissolved in physiological saline (by Otsuka Pharmaceutical), and intracerebroventricularly injected to the mice in an amount of 10 μg/20 μL. The test compound was used by being suspended in distilled water containing 0.5 w/v % methyl cellulose 400 cP (hereinafter abbreviated as MC) (by Otsuka Pharmaceutical). […] At 1 hour after the administration of the test compound, the degree of catalepsy was measured with respect to each of the mice such that a pair of only forelimbs and a pair of only hindlimbs of each mouse were placed by turns on a vertically installed acrylic stand with a height of 4.5 cm and a width of 1.0 cm. […]
The catalepsy remission rate was calculated according to the following equation. […]

inhibition at 0.1 µM [1] [%] | melting point [°C] | Compound | catalepsy remission rate [2] [%]
90 |  | O=C(c1ccccn1)c1sc(-c2nc3c([nH]2)CSCC3)nc1-c1ccco1 [Compound 29, 4-(2-Furyl)-5-(pyridin-2-ylcarbonyl)-2-(3,4,6,7-tetrahydrothiopyrano[3,4-d]imidazol-2-yl)thiazole] | 
94 |  | O=C(c1ccccn1)c1sc(-c2nc3ccccc3[nH]2)nc1-c1ccco1 [Compound 24, 4-(2-Furyl)-5-(pyridin-2 ylcarbonyl)-2-(2-benzimidazolyl)thiazole] | 
81 |  | O=C(c1sc(-c2nc3cnccc3[nH]2)nc1-c1ccco1)C1CCOCC1 [Compound 18, 4-(2-Furyl)-2-(imidazo[4,5-c]pyridin-2-yl)thiazol-5-yl tetrahydropyran-4-yl ketone] | 
 |  | O=C(c1sc(-c2nc3ncccc3[nH]2)nc1-c1ccco1)C1CCOCC1 [Compound 17, 4-(2-Furyl)-2-(imidazo[4,5-b]pyridin-2-yl)thiazol-5-yl tetrahydropyran-4-yl ketone] | 100
63 | 178 to 180 | COc1ccc(-c2c[nH]c(-c3nc(-c4ccco4)c(C(=O)C4CCOCC4)s3)n2)cc1 [Compound 19, 4-(2-Furyl)-2-[4-(4-methoxyphenyl)imidazol-2-yl]thiazol-5-yl tetrahydropyran-4-yl ketone] | 
50 |  | CC(C)CNC(=O)c1nc(-c2ccco2)c(C(=O)C2CCOCC2)s1 [Compound 33, 4-(2-Furyl)-5-(tetrahydropyran-4-ylcarbonyl)thiazol-2-carboxylic acid isobutylamide] | 
26 |  | O=C(Nc1ccccc1)c1nc(-c2ccco2)c(C(=O)C2CCOCC2)s1 [Compound 32, 4-(2 Furyl)-5-(tetrahydropyran-4-ylcarbonyl)thiazol-2-carboxylic acid phenylamide] | 
